Reference: PubChem BioAssay (NCI)
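Cultured in 96-well plates, cells were exposed to test compound for 48 hours across five concentrations. At the TGI there is no net growth.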

Columns and labels:
Assay in all cases: NCI tumour cell line growth inhibition, 48 h
IGROV1 ovarian = test system: IGROV1 ovarian
M14 melanoma = test system: M14 melanoma
A549 NSCLC = test system: A549 NSCLC
SN12C renal = test system: SN12C renal
HOP-92 NSCLC = test system: HOP-92 NSCLC
KM20L2 colon = test system: KM20L2 colon
SNB-78 CNS = test system: SNB-78 CNS
MOLT-4 leukemia = test system: MOLT-4 leukemia
NCI-H460 lung = test system: NCI-H460 lung
U251 CNS = test system: U251 CNS
SW-620 colon = test system: SW-620 colon
786-0 renal = test system: 786-0 renal
K-562 leukemia = test system: K-562 leukemia
UACC-62 melanoma = test system: UACC-62 melanoma
SK-OV-3 ovarian = test system: SK-OV-3 ovarian
M19-MEL melanoma = test system: M19-MEL melanoma
HOP-62 NSCLC = test system: HOP-62 NSCLC
DMS 273 small cell lung = test system: DMS 273 small cell lung
XF 498 CNS = test system: XF 498 CNS
OVCAR-4 ovarian = test system: OVCAR-4 ovarian
HCT-15 colon = test system: HCT-15 colon
LOX IMVI melanoma = test system: LOX IMVI melanoma
HCC-2998 colon = test system: HCC-2998 colon
DLD-1 colon = test system: DLD-1 colon
MALME-3M melanoma = test system: MALME-3M melanoma
CCRF-CEM leukemia = test system: CCRF-CEM leukemia
ACHN renal = test system: ACHN renal
LXFL 529 NSCLC = test system: LXFL 529 NSCLC
RPMI-8226 leukemia = test system: RPMI-8226 leukemia
COLO 205 colon = test system: COLO 205 colon
UACC-257 melanoma = test system: UACC-257 melanoma
SK-MEL-5 melanoma = test system: SK-MEL-5 melanoma
KM12 colon = test system: KM12 colon
HOP-18 NSCLC = test system: HOP-18 NSCLC
EKVX NSCLC = test system: EKVX NSCLC
SK-MEL-2 melanoma = test system: SK-MEL-2 melanoma
SNB-19 CNS = test system: SNB-19 CNS
UO-31 renal = test system: UO-31 renal
SF-295 CNS = test system: SF-295 CNS
HCT-116 colon = test system: HCT-116 colon
HT29 colon = test system: HT29 colon
NCI-H226 lung = test system: NCI-H226 lung
TK-10 renal = test system: TK-10 renal
CAKI-1 renal = test system: CAKI-1 renal
SF-539 CNS = test system: SF-539 CNS
OVCAR-5 ovarian = test system: OVCAR-5 ovarian
SK-MEL-28 melanoma = test system: SK-MEL-28 melanoma
HL-60(TB) leukemia = test system: HL-60(TB) leukemia
NCI-H23 lung = test system: NCI-H23 lung
NCI-H522 lung = test system: NCI-H522 lung
OVCAR-3 ovarian = test system: OVCAR-3 ovarian
DMS 114 small cell lung = test system: DMS 114 small cell lung
SR leukemia = test system: SR leukemia
SNB-75 CNS = test system: SNB-75 CNS
OVCAR-8 ovarian = test system: OVCAR-8 ovarian
SF-268 CNS = test system: SF-268 CNS
A498 renal = test system: A498 renal
RXF 393 renal = test system: RXF 393 renal
PC-3 prostate = test system: PC-3 prostate
HS 578T breast = test system: HS 578T breast
NCI/ADR-RES ovarian = test system: NCI/ADR-RES ovarian
T-47D breast = test system: T-47D breast
BT-549 breast = test system: BT-549 breast
MDA-MB-231 breast = test system: MDA-MB-231 breast
DU-145 prostate = test system: DU-145 prostate
MCF7 breast = test system: MCF7 breast
MDA-MB-435 = test system: MDA-MB-435
MDA-N = test system: MDA-N

Measured: TGI

CCOC(=O)C(Cc1ccc2ccccc2c1)(Cc1ccc2ccccc2c1)C(C)=O
8.51 µM: HCC-2998 colon
8.61 µM: MOLT-4 leukemia
> 10 µM: IGROV1 ovarian | M14 melanoma | A549 NSCLC | SN12C renal | HOP-92 NSCLC | KM20L2 colon | SNB-78 CNS | NCI-H460 lung | U251 CNS | SW-620 colon | 786-0 renal | K-562 leukemia | UACC-62 melanoma | SK-OV-3 ovarian | M19-MEL melanoma | HOP-62 NSCLC | DMS 273 small cell lung | XF 498 CNS | OVCAR-4 ovarian | HCT-15 colon | LOX IMVI melanoma | DLD-1 colon | MALME-3M melanoma | CCRF-CEM leukemia | ACHN renal | LXFL 529 NSCLC | COLO 205 colon
6.58 µM: RPMI-8226 leukemia

COc1ccc(-c2cn3ccsc3n2)cc1
54.6 µM: RPMI-8226 leukemia
75.6 µM: SR leukemia
85.7 µM: HL-60(TB) leukemia
> 100 µM: UACC-257 melanoma | SK-MEL-5 melanoma | KM12 colon | IGROV1 ovarian | M14 melanoma | A549 NSCLC | HOP-18 NSCLC | SN12C renal | HOP-92 NSCLC | EKVX NSCLC | SK-MEL-2 melanoma | SNB-19 CNS | KM20L2 colon | UO-31 renal | SNB-78 CNS | SF-295 CNS | MOLT-4 leukemia | NCI-H460 lung | U251 CNS | HCT-116 colon | 786-0 renal | HT29 colon | NCI-H226 lung | K-562 leukemia | UACC-62 melanoma | TK-10 renal | CAKI-1 renal | SK-OV-3 ovarian | SF-539 CNS | M19-MEL melanoma | OVCAR-5 ovarian | HOP-62 NSCLC | DMS 273 small cell lung | OVCAR-4 ovarian | HCT-15 colon | LOX IMVI melanoma | HCC-2998 colon | DLD-1 colon | SK-MEL-28 melanoma | MALME-3M melanoma | CCRF-CEM leukemia | ACHN renal | LXFL 529 NSCLC | NCI-H23 lung | NCI-H522 lung | OVCAR-3 ovarian | DMS 114 small cell lung | SNB-75 CNS | COLO 205 colon | OVCAR-8 ovarian | SF-268 CNS
34.9 µM: SW-620 colon

N#Cc1nc(C2OC(COC(=O)c3ccccc3)C(OC(=O)c3ccccc3)C2OC(=O)c2ccccc2)oc1N (stereo not given)
5.63 µM: RPMI-8226 leukemia
> 100 µM: UACC-257 melanoma | KM12 colon | IGROV1 ovarian | M14 melanoma | A549 NSCLC | HOP-18 NSCLC | SN12C renal | HOP-92 NSCLC | EKVX NSCLC | SNB-19 CNS | KM20L2 colon | SNB-78 CNS | SF-295 CNS | MOLT-4 leukemia | NCI-H460 lung | U251 CNS | SW-620 colon | HCT-116 colon | 786-0 renal | A498 renal | HT29 colon | NCI-H226 lung | K-562 leukemia | UACC-62 melanoma | TK-10 renal | CAKI-1 renal | SK-OV-3 ovarian | SF-539 CNS | M19-MEL melanoma | OVCAR-5 ovarian | HOP-62 NSCLC | DMS 273 small cell lung | OVCAR-4 ovarian | HCT-15 colon | LOX IMVI melanoma | HCC-2998 colon | RXF 393 renal | DLD-1 colon | SK-MEL-28 melanoma | MALME-3M melanoma | ACHN renal | NCI-H23 lung | OVCAR-3 ovarian | DMS 114 small cell lung | SNB-75 CNS | COLO 205 colon | OVCAR-8 ovarian | SF-268 CNS
66.8 µM: UO-31 renal
65.2 µM: NCI-H522 lung
36.3 µM: HL-60(TB) leukemia
34.6 µM: CCRF-CEM leukemia
40 µM: SK-MEL-5 melanoma
93.7 µM: SK-MEL-2 melanoma

Cc1ccc(S(=O)(=O)n2c(-c3ccccc3)c(-c3ccccc3)c3ccccc32)cc1
> 100 µM: UACC-257 melanoma | SK-MEL-5 melanoma | KM12 colon | IGROV1 ovarian | M14 melanoma | A549 NSCLC | HOP-18 NSCLC | SN12C renal | HOP-92 NSCLC | EKVX NSCLC | SK-MEL-2 melanoma | SNB-19 CNS | KM20L2 colon | UO-31 renal | SF-295 CNS | MOLT-4 leukemia | NCI-H460 lung | U251 CNS | SW-620 colon | HCT-116 colon | 786-0 renal | HT29 colon | NCI-H226 lung | K-562 leukemia | UACC-62 melanoma | TK-10 renal | SK-OV-3 ovarian | SF-539 CNS | M19-MEL melanoma | OVCAR-5 ovarian | HOP-62 NSCLC | DMS 273 small cell lung | XF 498 CNS | OVCAR-4 ovarian | HCT-15 colon | LOX IMVI melanoma | HCC-2998 colon | RXF 393 renal | DLD-1 colon | SK-MEL-28 melanoma | MALME-3M melanoma | CCRF-CEM leukemia | ACHN renal | LXFL 529 NSCLC | HL-60(TB) leukemia | NCI-H23 lung | NCI-H522 lung | OVCAR-3 ovarian | DMS 114 small cell lung | SR leukemia | SNB-75 CNS | RPMI-8226 leukemia | COLO 205 colon | OVCAR-8 ovarian | SF-268 CNS

CCN(CC)C(=O)c1cc(OC(C)C)ccc1-c1c(C)cc(OC(C)C)c(OC)c1OC
> 100 µM: SK-MEL-5 melanoma | KM12 colon | IGROV1 ovarian | M14 melanoma | A549 NSCLC | SN12C renal | EKVX NSCLC | SK-MEL-2 melanoma | SNB-19 CNS | KM20L2 colon | UO-31 renal | MOLT-4 leukemia | NCI-H460 lung | U251 CNS | SW-620 colon | HCT-116 colon | HT29 colon | NCI-H226 lung | K-562 leukemia | UACC-62 melanoma | TK-10 renal | CAKI-1 renal | SK-OV-3 ovarian | SF-539 CNS | OVCAR-5 ovarian | HOP-62 NSCLC | DMS 273 small cell lung | OVCAR-4 ovarian | HCT-15 colon | LOX IMVI melanoma | HCC-2998 colon | RXF 393 renal | DLD-1 colon | SK-MEL-28 melanoma | MALME-3M melanoma | CCRF-CEM leukemia | ACHN renal | NCI-H23 lung | NCI-H522 lung | OVCAR-3 ovarian | DMS 114 small cell lung | SR leukemia | RPMI-8226 leukemia | COLO 205 colon | OVCAR-8 ovarian | SF-268 CNS
96.4 µM: HL-60(TB) leukemia
73.9 µM: XF 498 CNS

CN1CCCC2C(c3ccccc3)C(C3=NCCCC3)C(c3ccccc3)CC21 (stereo not given)
55.2 µM: LOX IMVI melanoma
32.4 µM: UACC-62 melanoma
> 100 µM: KM12 colon | IGROV1 ovarian | PC-3 prostate | A549 NSCLC | SN12C renal | HOP-92 NSCLC | EKVX NSCLC | NCI/ADR-RES ovarian | SK-MEL-2 melanoma | SNB-19 CNS | SF-295 CNS | MOLT-4 leukemia | NCI-H460 lung | U251 CNS | SW-620 colon | HCT-116 colon | T-47D breast | BT-549 breast | 786-0 renal | A498 renal | NCI-H226 lung | MDA-MB-231 breast | TK-10 renal | CAKI-1 renal | SK-OV-3 ovarian | OVCAR-5 ovarian | DU-145 prostate | HOP-62 NSCLC | OVCAR-4 ovarian | HCT-15 colon | MCF7 breast | RXF 393 renal | CCRF-CEM leukemia | ACHN renal | HL-60(TB) leukemia | NCI-H23 lung | OVCAR-3 ovarian | SR leukemia | OVCAR-8 ovarian | SF-268 CNS
36.6 µM: MDA-MB-435
31.3 µM: SF-539 CNS
35 µM: UACC-257 melanoma
31.4 µM: HCC-2998 colon
67.6 µM: HT29 colon
96.7 µM: HS 578T breast
54.5 µM: NCI-H522 lung
31.7 µM: SK-MEL-5 melanoma
36.2 µM: SK-MEL-28 melanoma
41.4 µM: MDA-N
40.4 µM: M14 melanoma
38 µM: SNB-75 CNS
37.6 µM: K-562 leukemia | MALME-3M melanoma
54.1 µM: RPMI-8226 leukemia
66.1 µM: COLO 205 colon

CC1=C2C(=O)O[C@@H](c3ccoc3)[C@]2(C)CCC1
> 100 µM: UACC-257 melanoma | SK-MEL-5 melanoma | KM12 colon | IGROV1 ovarian | M14 melanoma | A549 NSCLC | HOP-18 NSCLC | HOP-92 NSCLC | EKVX NSCLC | SK-MEL-2 melanoma | SNB-19 CNS | KM20L2 colon | UO-31 renal | SNB-78 CNS | SF-295 CNS | MOLT-4 leukemia | NCI-H460 lung | U251 CNS | SW-620 colon | HCT-116 colon | 786-0 renal | HT29 colon | NCI-H226 lung | K-562 leukemia | UACC-62 melanoma | TK-10 renal | CAKI-1 renal | SK-OV-3 ovarian | SF-539 CNS | M19-MEL melanoma | OVCAR-5 ovarian | HOP-62 NSCLC | XF 498 CNS | OVCAR-4 ovarian | HCT-15 colon | LOX IMVI melanoma | HCC-2998 colon | DLD-1 colon | SK-MEL-28 melanoma | MALME-3M melanoma | CCRF-CEM leukemia | ACHN renal | LXFL 529 NSCLC | HL-60(TB) leukemia | NCI-H23 lung | NCI-H522 lung | OVCAR-3 ovarian | DMS 114 small cell lung | SR leukemia | SNB-75 CNS | RPMI-8226 leukemia | COLO 205 colon | OVCAR-8 ovarian | SF-268 CNS
